In one assay the test system is IL-1β. In words: IL-1β secretion into the supernatant in the fibroblast proliferation assay (ELISA). It is filed as cell-based, human. The following applies: WE-1 (FIG. 2B, 9B), graded concentrations. As for the experimental part:
Primary human dermal fibroblasts (HDF) were purchased from CELLnTEC, Bern. They were routinely grown in Dulbecco's modified Eagle's medium (DMEM) containing 10% FCS, 2 mM glutamine, and 100 U/ml penicillin/100 μg/ml streptomycin. Media, antibiotics, and glutamine were bought from Lonza. The cells were used at passage 5-15. Cells were trypsinized and seeded at 2500 cells/well in 30 μl into the inner wells of 384-well plates in the absence or presence of graded compound concentrations with or without different dilutions of sterile-filtered WE in medium. For control samples, 30 μl medium was added instead of specific stimuli. The outer wells were loaded with sterile water. The cells were incubated for 72 hours at 37° C.
At the end of the incubation period, supernatants were removed for the determination of IL-1β, and the cells were fixed with 4% paraformaldehyde (Morphisto) for 15 minutes at room temperature and washed 3 times with PBS. A control plate was fixed after the overnight adherence of the cells (day 1) to determine the starting cell number.
IL-1β levels were determined with a commercial ELISA kit. The amount of IL-1β contained in the wound exudate added to the cells was subtracted from the total IL-B in the supernatants in order to determine the cytokine secreted by the cells.
In general terms: ELISA stands for enzyme-linked immunosorbent assay.

Assay [1] relates to IL-8. In words: U937 cell stimulation assay (LPS-induced IL-8). The settings on record: LPS 100 ng/ml, 16 hours (FIG. 16A). In kind it is cell-based, human. On the procedure: The human monocytic cell line U937 (ATCC CRL 1593) was routinely grown in RPMI_1640 supplemented by 10% FCS and 2 mM glutamine, and 100 U/ml penicillin/100 μg/ml streptomycin. Cells were seeded at 4×10^5/ml in 50 μl/well of a 384-well plate and combined cells with graded concentrations of test compounds and LPS at 100 ng/ml. After 16 hours, the supernatants were transferred to fresh plates and frozen at −20° C. for IL-8 analysis, using a commercial ELISA kit.

Assay [2] deals with IL-8. In words: Primary human monocyte cytokine secretion assay (spontaneous IL-8). It is filed as cell-based. The following applies: 16 hours (FIG. 16B). On the procedure:
Primary human monocytes were prepared from peripheral blood mononuclear cells (PBMC). PBMC were isolated from buffy coats obtained from the Red Cross, Vienna, using LymphoPrep (Technoclone). 30 ml of buffy concentrate was diluted 1:2 with PBS, gently underlayered with 15 ml Lymphoprep in a 50 ml Falcon tube and centrifuged for 25 minutes at 1800 rpm at 21° C. The interphase was carefully transferred to a new Falcon tube and filled up to 50 ml with ice cold PBS. After another centrifugation step (10 minutes, 1200 rpm, 4° C.), the cell pellet was washed 3 times with PBS, resuspended in RPMI medium containing 20% FCS and 10% DMSO and frozen in liquid nitrogen. Monocytes were generated from frozen aliquots using positive selection with the CD14 Beads-Kit (Miltenyi) on an autoMACS-Sorter (Miltenyi) according to the manufacturer's instructions.
Cells were seeded at 8×10^5/ml in 50 μl/well of a 384-well plate and combined cells with graded concentrations of test compounds. After 16 hours, the supernatants were transferred to fresh plates and frozen at −20° C. for IL-8 analysis, using a commercial ELISA kit.

A further assay deals with Collagen 3a. Nature of the assay: mRNA expression in fibroblast cultures (qRT-PCR): collagen 3. In kind it is cell-based, human. On the procedure:
(§1) Cells were seeded into 24-well plates and incubated with compounds in the presence or absence of wound exudates for 72 hours. Total RNA was isolated using the RNeasy Mini Kit (QIAGEN #74106) according to the manufacturer's protocol. RNA integrity and concentration for each sample was confirmed and measured with the Qubit fluorometer. Each RNA sample was then diluted to 2 ng/μl in nuclease-free doubly distilled water.
(§2) 20 ng of total RNA were reverse-transcribed into cDNA and immediately subjected to PCR amplification using the SuperScript Ill Platinum One-Step Quantitative RT-PCR System with ROX (Invitrogen #11745). qRT-PCR amplifications were performed in 20 μl reactions containing 9 μl 2× Reaction Mix with ROX, 0.4 μl SuperScript III RT/Platinum Taq Mix and 1 μl primer (final: 900 nM, Taqman Gene Expression Assay, Applied Biosystems)
(§3) The program included 30 minutes of reverse transcription at 48° C., an initial denaturation for 5 minutes at 95° C. followed by 40 cycles of denaturation at 95° C. for 15 seconds and annealing at 60° C. for 60 seconds. Reactions were set up in 96-well format PCR plates (Peqlab #732-2879) and carried out in a Mx3005P Real-Time PCR Detection System (Stratagene).
(§4) TaqMan Gene Expression Assays (Applied Biosystems) were used, which include preoptimized probe and primer sets specific for the genes being validated. The sequences and ID numbers are listed below:
(§5) The house keeping gene elongation factor 1a (EF1a) was used as a reference gene. Normalized expression was calculated using the comparative Ct (or ΔCt) method, and fold changes were derived from the 2-ΔΔCt values for each gene. Graphs were prepared using relative Ct values that were calculated by subtracting the EF1a Ct values from the corresponding Ct values for the gene being measured.

Another assay has as its system Collagen 1a. In words: mRNA expression in fibroblast cultures (qRT-PCR): collagen 1. In kind it is cell-based, human. On the procedure:
as §1, §2, §3, §4, §5
In general terms: In qPCR the cycle at which signal appears reflects the starting amount.

The subject of assay [3] is human dermal fibroblast (HDF) cells. Nature of the assay: Fibroblast-derived matrix formation (FDM) assay, 3D fibroblast culture. It is filed as cell-based. As for the experimental part: Human dermal fibroblast (HDF) cells were seeded at 1250 cells/well on day −3 into 384-well tissue culture plates, which had been pre-coated for 1 hour at 37° C. with 0.2% gelatin solution (Sigma). When the cells reached confluence (=day 0), a matrix promoting supplement (vitamin C: 2-phospho-L-ascorbic acid trisodium salt, 100 μg/ml; Sigma) was added together with test samples containing TGF-β1 or graded concentrations of compounds −/+WE as described for the HDF proliferation assay. After 4 days, medium was replaced by fresh vitamin C—and stimulus—as well as compound-containing medium, maintaining the conditions initiated on day 0. TGF-β1 was included as a positive control to promote FDM formation. After a total incubation time of 7 to 8 days, FDM production was measured in fixed cultures via SRB staining and evaluated as described above. In some cases, the experiment was stopped and evaluated already on day 4.

The mark [4] stands for this setting: medium in the absence of WE, 72-hour incubation.

Take `CCS(=O)(=O)c1cc2cc(C[C@](O)(CC(C)(C)c3ccc(F)cc3C(N)=O)C(F)(F)F)[nH]c2cn1` [BI-653048, (R)-2-(4-((5-(Ethylsulfonyl)-1H-pyrrolo[2,3-c]pyridin-2-yl)methyl)-5,5,5-trifluoro-4-hydroxy-2-methylpentan-2-yl)-5-fluorobenzamide]: the “IL-1β secretion into the supernatant” value with IL-1β is reported as “inhibited IL-1β secretion at the same concentrations”. The “LPS-induced IL-8 secretion in U937 cells” value in the assay on IL-8 [1] was “inhibited both LPS-induced and spontaneous IL-8 secretion”. In the assay on IL-8 [2], the “spontaneous IL-8 secretion in human monocytes” value was “inhibited both LPS-induced and spontaneous IL-8 secretion”. Also, the “collagen 3 mRNA expression” value was “induced mRNA expression of both collagens 1 and 3 in the presence of wound exudate” with Collagen 3a (WE-2, 1 μM, 72-hour incubation (FIG. 3B)); “reduction of collagen 3 mRNA with medium” in the assay with Collagen 3a (setting [4]). Moreover, the “collagen 1 mRNA expression” value is “induced mRNA expression of both collagens 1 and 3 in the presence of wound exudate” in the assay with Collagen 1a (WE-2, 1 μM, 72-hour incubation (FIG. 3A)); “no significant effect on collagen 1 mRNA in the presence of medium” with Collagen 1a (setting [4]). Further, the “formation of fibroblast-derived matrix (3D)” value in assay [3] (WE-1, graded concentrations (FIG. 4)) is reported as “effective in inducing matrix formation in the presence of wound exudate”.

On to `CCS(=O)(=O)c1cc2cc(C[C@@](O)(CC(C)(C)c3ccc(F)cc3C(N)=O)C(F)(F)F)[nH]c2cn1` [BI-3047], for which the “IL-1β secretion into the supernatant” value with IL-1β was “much less effect on IL-1β secretion”. The “LPS-induced IL-8 secretion in U937 cells” value in the assay with IL-8 [1] was “even induced IL-8 secretion at the highest concentrations”. In addition, the “spontaneous IL-8 secretion in human monocytes” value in the assay with IL-8 [2] was “even induced IL-8 secretion at the highest concentrations”. For the same compound, the “collagen 3 mRNA expression” value with Collagen 3a (setting [4]) is “reduction of collagen 3 mRNA with medium”. The “collagen 1 mRNA expression” value in the assay on Collagen 1a (setting [4]) is reported as “no significant effect on collagen 1 mRNA in the presence of medium”. Also, the “formation of fibroblast-derived matrix (3D)” value in assay [3] (WE from patient #92 (FIG. 12)) was “did not induce matrix formation”.

These data come from patent US12496304B2, “Selective glucocorticoid receptor modifiers for treating impaired skin wound healing” (AKRIBES BIOMEDICAL GMBH, priority 2019, dated 2025).
